Blank lines part the entries; values can stand above or below the compound they belong to.
Legend:
[1] = target: T1, PI3K-α (PIK3CA) wild-type (WT), p110α/p85α complex (Homo sapiens, UniProt P42336); test: PI3K-alpha kinase (PIK3CA) biochemical activity, ADP-Glo, wild-type; conditions: Soy PI lipid substrate
T1 construct: Recombinant, catalytically active human full length PIK3KA Wild-type and H1047R mutant; 6×His (N); purchased EMD Millipore Sigma 14-602M
Text: (§1) PI3K-Alpha Kinase (PIK3CA) Activity, Wild-Type and H1047R Mutant and Determining IC50 Values for Inhibitors
(§2) Recombinant, catalytically active human full length PIK3KA Wild-type and H1047R mutant were purchased as 1:1 complex of N-terminal 6×his tagged p110α (catalytic) and untagged p85α (regulatory subunit) from EMD Millipore Sigma (cat. no. 14-602M and 14-792M, respectively). PIP2diC8 (Avanti Polar Lipids Inc., cat. no. 850185) or Soy PI (Avanti Polar Lipids Inc., cat. No. 840044P) was used as lipid substrate. PIP2diC8 or PI lyophilized powder was dissolved in milliQ water to a concentration of 1 mM just before use. 10 mM stock compounds in DMSO were serially diluted 1:3 to generate a 10-point curve and plated using an acoustic liquid handler system (Echo 550 series instrument, Labcyte). A 10× intermediate compound plate (200 uM starting compound concentration and 10% DMSO) was prepared before starting the reaction. A typical reaction mixture (50 uL) comprised 40 mM HEPES buffer, pH 7.4, 25 mM MgCl2, 0.01% v/v triton-X-100, 1% v/v DMSO, 20 mM NaCl, 1-5 nM WT or H1047R PI3K protein, 20 uM ATP, and 50 uM PIP2diC8 or Soy PI. 1% DMSO buffer alone without test compound was employed as MAX control (full activity in the absence of any inhibitor), and no enzyme control was used to determine the level of background Adenosine 5′-diphosphate (ADP) (MIN control). First, Wild-type (WT) and H1047R mutant protein in kinase buffer with all components except ATP were incubated with or without compound at 27° C. for 1 h. After the pre-incubation, the reaction was initiated by the addition of 20 uL of 50 uM ATP (20 uM final concentration). The reaction was allowed to proceed until about 10% conversion of ATP (2 uM ADP) at 27° C. After that time, 5 uL of reaction was mixed with 5 uL of ADP-Kinase Glo Reagent (ADP-Glo Kinase assay kit, Promega cat. no. V9102) supplemented with MgCl2 10 mM to stop the reaction and deplete the remaining ATP for 40 min at room temperature. Then, 10 uL of Kinase Detection Reagent (ADP-Glo Kinase assay kit, Promega cat. no. V9102) was added to simultaneously convert ADP to ATP and allow the newly synthesized ATP to be measured using a luciferase/luciferin reaction. After 30 min at room temperature the light generated was measured using a luminometer (EnVision plate reader, Perkin Elmer). Process data through Genedata-Screener tool. Relative IC50 values are determined using luminescence units by calculating percent inhibition with respect to on-plate “MIN” and “MAX” controls. Data was analyzed using a 4-parameter nonlinear logistic equation (four-parameter logistic concentration-response curve): Y=bot+[(top−bot)/1+(x/IC50)slope] where Y=% inhibition, X=concentration yielding y % inhibition, Bottom=minimum value of y attained by curve, Top=maximum value of y attained by curve and Slope=steepness of curve at IC50. % Inh=[(median Max−x/median Max−median Min)]·100 IC50: concentration of compound that reduces a given response (ligand binding, enzyme response) by 50%. IC50 relative: concentration giving half the compound's maximum response.

[2] = target: T2, PI3K-α (PIK3CA) H1047R mutant, p110α/p85α complex (Homo sapiens, UniProt P42336, H1047R); test: PI3K-alpha kinase (PIK3CA) biochemical activity, ADP-Glo, H1047R mutant; conditions: Soy PI lipid substrate
T2 construct: Recombinant, catalytically active human full length PIK3KA Wild-type and H1047R mutant; 6×His (N); purchased EMD Millipore Sigma 14-792M
Text: as §1, §2

T2 sequence (P42336 whole entry H1047R): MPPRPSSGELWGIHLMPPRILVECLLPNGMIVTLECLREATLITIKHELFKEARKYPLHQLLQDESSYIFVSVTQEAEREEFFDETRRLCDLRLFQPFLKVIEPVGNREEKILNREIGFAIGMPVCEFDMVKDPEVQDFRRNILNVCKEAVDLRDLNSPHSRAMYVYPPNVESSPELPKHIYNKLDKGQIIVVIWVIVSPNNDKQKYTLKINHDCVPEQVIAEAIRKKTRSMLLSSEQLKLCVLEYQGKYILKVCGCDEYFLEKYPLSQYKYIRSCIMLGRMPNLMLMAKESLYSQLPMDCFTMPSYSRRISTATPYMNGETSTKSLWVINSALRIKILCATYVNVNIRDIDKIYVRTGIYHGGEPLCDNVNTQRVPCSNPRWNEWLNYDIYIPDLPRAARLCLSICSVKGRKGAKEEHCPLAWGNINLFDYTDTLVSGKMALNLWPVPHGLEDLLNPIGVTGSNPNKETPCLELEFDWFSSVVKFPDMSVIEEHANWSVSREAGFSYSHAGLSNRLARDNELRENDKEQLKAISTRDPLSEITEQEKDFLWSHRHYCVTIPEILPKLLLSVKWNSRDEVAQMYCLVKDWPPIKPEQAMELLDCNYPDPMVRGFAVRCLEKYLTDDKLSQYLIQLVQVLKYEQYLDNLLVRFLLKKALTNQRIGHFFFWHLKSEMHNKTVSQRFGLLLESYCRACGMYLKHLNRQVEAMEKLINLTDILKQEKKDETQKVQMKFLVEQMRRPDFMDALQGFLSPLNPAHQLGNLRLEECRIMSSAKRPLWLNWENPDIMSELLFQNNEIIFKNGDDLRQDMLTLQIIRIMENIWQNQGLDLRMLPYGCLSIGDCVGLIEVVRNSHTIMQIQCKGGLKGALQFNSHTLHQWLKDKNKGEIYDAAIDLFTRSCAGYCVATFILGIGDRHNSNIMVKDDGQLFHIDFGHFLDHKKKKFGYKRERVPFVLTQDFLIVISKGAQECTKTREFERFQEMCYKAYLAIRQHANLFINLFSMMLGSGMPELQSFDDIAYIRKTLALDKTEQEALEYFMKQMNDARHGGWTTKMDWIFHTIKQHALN
T2 sequence (P27986 whole entry partner): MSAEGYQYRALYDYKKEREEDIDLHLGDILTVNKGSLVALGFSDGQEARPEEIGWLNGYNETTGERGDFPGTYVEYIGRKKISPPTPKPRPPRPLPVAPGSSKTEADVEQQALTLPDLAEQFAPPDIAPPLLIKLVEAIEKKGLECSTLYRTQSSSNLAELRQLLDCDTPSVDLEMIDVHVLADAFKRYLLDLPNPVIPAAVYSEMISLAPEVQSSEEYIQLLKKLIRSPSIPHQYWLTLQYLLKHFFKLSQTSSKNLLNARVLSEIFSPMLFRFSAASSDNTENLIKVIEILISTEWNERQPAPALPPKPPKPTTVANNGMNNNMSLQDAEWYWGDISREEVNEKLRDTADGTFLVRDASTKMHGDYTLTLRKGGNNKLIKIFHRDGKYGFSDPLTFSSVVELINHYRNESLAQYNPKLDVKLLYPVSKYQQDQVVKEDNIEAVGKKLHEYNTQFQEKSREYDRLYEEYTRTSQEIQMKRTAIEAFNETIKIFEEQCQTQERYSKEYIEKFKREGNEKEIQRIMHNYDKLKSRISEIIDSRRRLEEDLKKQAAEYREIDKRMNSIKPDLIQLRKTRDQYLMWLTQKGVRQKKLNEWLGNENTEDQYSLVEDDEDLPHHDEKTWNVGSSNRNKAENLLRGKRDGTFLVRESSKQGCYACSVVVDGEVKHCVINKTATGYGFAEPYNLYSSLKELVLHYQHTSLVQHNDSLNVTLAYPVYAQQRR

Compound: Cc1cc(C(C)Nc2ccccc2C(=O)O)c2oc(-c3nccc4cnn(C)c34)cc(=O)c2c1 (single isomer, unassigned) [Example 96, 2-[1-[6-Methyl-2-(1-methylpyrazolo[3,4-c]pyridin-7-yl)-4-oxo-chromen-8-yl]ethylamino]benzoic acid]
IC50 [1]: 5000 to 10000 nM
IC50 [2]: 1000 to 5000 nM

Compound: Cc1cc(C(C)Nc2ccccc2C(=O)O)c2oc(-c3cnc4cn(C)nc4c3)cc(=O)c2c1 (single isomer, unassigned) [Example 44, 2-[1-[6-Methyl-2-(2-methylpyrazolo[4,3-b]pyridin-6-yl)-4-oxo-chromen-8-yl]ethylamino]benzoic acid]
IC50 [1]: 5000 to 10000 nM
IC50 [2]: 1000 to 5000 nM

Compound: Cc1cc(C(C)Nc2ccccc2C(=O)O)c2oc(-c3ccc4cc[nH]c4c3)cc(=O)c2c1 (single isomer, unassigned) [Example 21, 2-[1-[2-(1H-Indol-6-yl)-6-methyl-4-oxo-chromen-8-yl]ethylamino]benzoic acid]
IC50 [1]: 500 to 1000 nM
IC50 [2]: < 500 nM

Compound: Cc1cc(C(C)Nc2ccccc2C(=O)O)c2oc(-c3nn(C)c4ccccc34)cc(=O)c2c1 (centres unmarked) [Example 12, 2-[1-[6-Methyl-2-(1-methylindazol-3-yl)-4-oxo-chromen-8-yl]ethylamino]benzoic acid]
IC50 [1]: 5000 to 10000 nM
IC50 [2]: < 500 nM

Compound: Cc1cc(C(C)Nc2ccccc2C(=O)O)c2oc(-c3ccc4c(c3)ncn4C)cc(=O)c2c1 (single isomer, unassigned) [Example 166, 2-[1-[6-Methyl-2-(1-methylbenzimidazol-5-yl)-4-oxo-chromen-8-yl]ethylamino]benzoic acid]
IC50 [1]: 5000 to 10000 nM
IC50 [2]: < 500 nM

Compound: Cc1cc(C(C)Nc2ccccc2C(=O)O)c2oc(-c3cnn4ccccc34)cc(=O)c2c1 (single isomer, unassigned) [Example 29, 2-[1-(6-Methyl-4-oxo-2-pyrazolo[1,5-a]pyridin-3-yl-chromen-8-yl)ethylamino]benzoic acid]
IC50 [1]: 5000 to 10000 nM
IC50 [2]: < 500 nM

Compound: Cc1cc(C(C)Nc2ccccc2C(=O)O)c2oc(-c3ccc4nnc(C(F)(F)F)n4c3)cc(=O)c2c1 (single isomer, unassigned) [Example 162, 2-[1-[6-Methyl-4-oxo-2-[3-(trifluoromethyl)-[1,2,4]triazolo[4,3-a]pyridin-6-yl]chromen-8-yl]ethylamino]benzoic acid]
IC50 [1]: > 10000 nM
IC50 [2]: 500 to 1000 nM

Compound: Cc1cc(C(C)Nc2ccccc2C(=O)O)c2oc(-c3ccc4cnncc4c3)cc(=O)c2c1 (single isomer, unassigned) [Example 47, 2-[1-(6-Methyl-4-oxo-2-phthalazin-6-yl-chromen-8-yl)ethylamino]benzoic acid]
IC50 [1]: 1000 to 5000 nM
IC50 [2]: < 500 nM

Compound: Cc1cc(C(C)Nc2ccccc2C(=O)O)c2oc(-c3ccc4nccn4n3)cc(=O)c2c1 (single isomer, unassigned) [Example 36, 2-[1-(2-Imidazo[1,2-b]pyridazin-6-yl-6-methyl-4-oxo-chromen-8-yl)ethylamino]benzoic acid]
IC50 [1]: 1000 to 5000 nM
IC50 [2]: < 500 nM

Compound: Cc1cc(C(C)Nc2ccccc2C(=O)O)c2oc(-c3ccc4nc(C)cn4n3)cc(=O)c2c1 (single isomer, unassigned) [Example 107, 2-[1-[6-Methyl-2-(2-methylimidazo[1,2-b]pyridazin-6-yl)-4-oxo-chromen-8-yl]ethylamino]benzoic acid]
IC50 [1]: 1000 to 5000 nM
IC50 [2]: 500 to 1000 nM

Compound: Cc1cc(C(C)Nc2ccccc2C(=O)O)c2oc(-c3ccc4nc(C(F)(F)F)cn4c3)c(C)c(=O)c2c1 (single isomer, unassigned) [Example 186, 2-[1-[3,6-Dimethyl-4-oxo-2-[2-(trifluoromethyl)imidazo[1,2-a]pyridin-6-yl]chromen-8-yl]ethylamino]benzoic acid]
IC50 [1]: 1000 to 5000 nM
IC50 [2]: < 500 nM

Compound: Cc1c(-c2ccc3nn(C)cc3c2)oc2c(C(C)Nc3ccccc3C(=O)O)cc(F)cc2c1=O (single isomer, unassigned) [Example 57, 2-[1-[6-Fluoro-3-methyl-2-(2-methylindazol-5-yl)-4-oxo-chromen-8-yl]ethylamino]benzoic acid]
IC50 [1]: 1000 to 5000 nM
IC50 [2]: 1000 to 5000 nM

Continued, values first:

IC50 [1]: 1000 to 5000 nM
IC50 [2]: < 500 nM
Compound: Cc1cn2nc(-c3cc(=O)c4cc(C(F)(F)F)cc(C(C)Nc5ccc(Cl)nc5C(=O)O)c4o3)ccc2n1 (single isomer, unassigned) [Example 102, 6-Chloro-3-[1-[2-(2-methylimidazo[1,2-b]pyridazin-6-yl)-4-oxo-6-(trifluoromethyl)chromen-8-yl]ethylamino]pyridine-2-carboxylic acid]

IC50 [1]: < 500 nM
IC50 [2]: < 500 nM
Compound: Cc1cc(C(C)Nc2ccc(Cl)nc2C(=O)O)c2oc(-c3nn(C)c4ccccc34)cc(=O)c2c1 (single isomer, unassigned) [Example 177, 6-Chloro-3-[1-[6-methyl-2-(1-methylindazol-3-yl)-4-oxo-chromen-8-yl]ethylamino]pyridine-2-carboxylic acid]

IC50 [1]: 1000 to 5000 nM
IC50 [2]: < 500 nM
Compound: Cc1cc(C(C)Nc2ccccc2C(=O)O)c2oc(-c3ccc4nc(C)cn4c3)c(C#N)c(=O)c2c1 (single isomer, unassigned) [Example 118, 2-[1-[3-Cyano-6-methyl-2-(2-methylimidazo[1,2-a]pyridin-6-yl)-4-oxo-chromen-8-yl]ethylamino]benzoic acid]

IC50 [1]: < 500 nM
IC50 [2]: < 500 nM
Compound: Cc1cc(C(C)Nc2ccccc2C(=O)O)c2oc(-c3cccn4nccc34)cc(=O)c2c1 (single isomer, unassigned) [Example 106, 2-[1-(6-Methyl-4-oxo-2-pyrazolo[1,5-a]pyridin-4-yl-chromen-8-yl)ethylamino]benzoic acid]

IC50 [1]: 1000 to 5000 nM
IC50 [2]: < 500 nM
Compound: Cc1cc(C(C)Nc2ccccc2C(=O)O)c2oc(-c3cccc4c3cnn4C)cc(=O)c2c1 (single isomer, unassigned) [Example 136, 2-[1-[6-Methyl-2-(1-methylindazol-4-yl)-4-oxo-chromen-8-yl]ethylamino]benzoic acid]

IC50 [1]: 1000 to 5000 nM
IC50 [2]: < 500 nM
Compound: Cc1cc(C(C)Nc2ccccc2C(=O)O)c2oc(-c3ccc4c(C#N)nn(C)c4c3)cc(=O)c2c1 (single isomer, unassigned) [Example 104, 2-[1-[2-(3-Cyano-1-methyl-indazol-6-yl)-6-methyl-4-oxo-chromen-8-yl]ethylamino]benzoic acid]

IC50 [1]: 500 to 1000 nM
IC50 [2]: < 500 nM
Compound: Cc1cc(C(C)Nc2ccccc2C(=O)O)c2oc(-c3ccc4nn(C)cc4n3)c(C)c(=O)c2c1 (single isomer, unassigned) [Example 130, 2-[1-[3,6-Dimethyl-2-(2-methylpyrazolo[4,3-b]pyridin-5-yl)-4-oxo-chromen-8-yl]ethylamino]benzoic acid]

IC50 [1]: < 500 nM
IC50 [2]: < 500 nM
Compound: Cc1cc(C(C)Nc2ccccc2C(=O)O)c2oc(-c3cccc4c3OCO4)cc(=O)c2c1 (single isomer, unassigned) [Example 45, 2-[1-[2-(1,3-Benzodioxol-4-yl)-6-methyl-4-oxo-chromen-8-yl]ethylamino]benzoic acid]

IC50 [1]: 500 to 1000 nM
IC50 [2]: < 500 nM
Compound: Cc1cc(C(C)Nc2ccc(C)nc2C(=O)O)c2oc(-c3ccc4nn(C)cc4c3)c(C)c(=O)c2c1 (single isomer, unassigned) [Example 175, 3-[1-[3,6-Dimethyl-2-(2-methylindazol-5-yl)-4-oxo-chromen-8-yl]ethylamino]-6-methyl-pyridine-2-carboxylic acid]

IC50 [1]: 500 to 1000 nM
IC50 [2]: < 500 nM
Compound: Cc1cc(C(C)Nc2ccc(Cl)nc2C(=O)O)c2oc(-c3ccc4nn(C)cc4c3)cc(=O)c2c1 (single isomer, unassigned) [Example 83, 6-Chloro-3-[1-[6-methyl-2-(2-methylindazol-5-yl)-4-oxo-chromen-8-yl]ethylamino]pyridine-2-carboxylic acid]
